Experimental findings from ChEMBL document CHEMBL1133249, “Combined tachykinin receptor antagonist: synthesis and stereochemical structure-activity relationships of novel morpholine analogues” (Bioorg Med Chem Lett, 2000) are described below.

One test concerns the target T1, Substance-K receptor (Cavia porcellus, UniProt Q64077).
T1 sequence (Q64077 whole entry): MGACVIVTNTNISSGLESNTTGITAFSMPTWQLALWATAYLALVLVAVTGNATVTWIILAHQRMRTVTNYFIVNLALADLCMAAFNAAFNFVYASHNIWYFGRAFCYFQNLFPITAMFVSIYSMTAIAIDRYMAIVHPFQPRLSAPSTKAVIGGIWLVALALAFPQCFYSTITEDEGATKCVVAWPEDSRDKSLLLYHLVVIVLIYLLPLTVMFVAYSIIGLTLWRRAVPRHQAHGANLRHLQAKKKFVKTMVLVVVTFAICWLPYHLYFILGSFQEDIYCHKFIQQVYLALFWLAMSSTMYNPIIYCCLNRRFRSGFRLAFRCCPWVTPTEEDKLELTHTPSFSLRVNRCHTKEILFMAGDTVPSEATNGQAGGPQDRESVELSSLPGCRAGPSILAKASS
Briefly: The compound was evaluated in vitro for its ability to displace [3H]SP from Tachykinin receptor 2 of male guinea pig lung membrane. The format is tissue-based.

For a further test, the target named is Substance-P receptor (Cavia porcellus, UniProt P30547). Description: The compound was evaluated in vitro for its ability to displace [3H]SP from Tachykinin receptor 1 of male guinea pig lung membrane. The format is tissue-based.
The next test has as its target T2, Neuromedin-K receptor (Cavia porcellus, UniProt P30098).
T2 sequence (P30098 whole entry): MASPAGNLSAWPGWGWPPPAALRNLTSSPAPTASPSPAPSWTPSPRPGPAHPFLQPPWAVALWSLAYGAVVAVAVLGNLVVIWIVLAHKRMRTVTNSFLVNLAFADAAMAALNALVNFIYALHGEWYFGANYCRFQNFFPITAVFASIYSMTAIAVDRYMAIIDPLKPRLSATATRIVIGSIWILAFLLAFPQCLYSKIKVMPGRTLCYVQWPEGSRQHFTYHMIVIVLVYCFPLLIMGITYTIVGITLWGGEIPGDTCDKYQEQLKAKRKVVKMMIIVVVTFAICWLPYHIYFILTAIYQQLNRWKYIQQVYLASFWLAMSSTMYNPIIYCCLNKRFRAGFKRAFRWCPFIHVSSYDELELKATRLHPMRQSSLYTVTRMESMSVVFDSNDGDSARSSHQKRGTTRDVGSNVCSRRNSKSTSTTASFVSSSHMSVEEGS
Description: The compound was evaluated in vitro for its ability to displace [3H]SP from Tachykinin receptor 3 of male guinea pig lung membrane. The format is tissue-based.

The subject of test [1] is Cavia porcellus. Description: Inhibitory effect was evaluated after intravenous administration on bronchoconstriction induced by NKB receptor in guinea pigs. Format: functional. As to conditions: read-out: ID50 (the source's name).
The test system of test [2] is Cavia porcellus. Description: Inhibitory effect of compound was evaluated after intravenous administration on SP-induced plasma protein extravasation, mediated by NK1 receptors in guinea pig airways. The format is functional. As to conditions: read-out: ID50 (the source's name).
Test [3] has as its system Cavia porcellus. Description: Inhibitory effect was evaluated after intravenous administration on bronchoconstriction induced by NKA receptor in guinea pigs. Format: functional. As to conditions: read-out: ID50 (the source's name).

Sequence of Substance-P receptor (P30547 whole entry): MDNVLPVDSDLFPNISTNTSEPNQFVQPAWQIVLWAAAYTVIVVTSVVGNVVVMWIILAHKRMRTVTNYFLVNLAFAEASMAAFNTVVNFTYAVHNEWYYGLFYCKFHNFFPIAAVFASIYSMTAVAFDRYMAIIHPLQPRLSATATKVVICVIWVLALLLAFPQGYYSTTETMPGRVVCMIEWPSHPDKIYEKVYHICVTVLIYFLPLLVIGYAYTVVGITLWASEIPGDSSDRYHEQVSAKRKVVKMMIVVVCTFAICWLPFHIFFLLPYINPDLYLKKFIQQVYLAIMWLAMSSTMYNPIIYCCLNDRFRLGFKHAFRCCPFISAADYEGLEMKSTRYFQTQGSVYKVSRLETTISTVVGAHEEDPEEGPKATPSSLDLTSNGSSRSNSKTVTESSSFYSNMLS

With `COc1cc(C(=O)N2CCO[C@](CCN3CCC4(CC3)c3ccccc3C[S@@+]4[O-])(c3ccc(Cl)c(Cl)c3)C2)cc(OC)c1OC`, the figures for the IC50 at Substance-K receptor, on Substance-P receptor and at Neuromedin-K receptor were 0.059 µM, 0.22 µM and 0.011 µM, respectively.
For the molecule `COc1cc(C(=O)N2CCO[C@@](CCN3CCC4(CC3)c3ccccc3C[S@+]4[O-])(c3ccc(Cl)c(Cl)c3)C2)cc(OC)c1OC`, the IC50 at Substance-K receptor is above 1 µM; at Substance-P receptor, above 1 µM; at Neuromedin-K receptor, 0.52 µM.
As to `COc1cc(C(=O)N2CCO[C@](CCN3CCC4(CC3)c3ccccc3C[S@+]4[O-])(c3ccc(Cl)c(Cl)c3)C2)cc(OC)c1OC`, the values for the IC50 at Substance-K receptor, at Substance-P receptor and at Neuromedin-K receptor were 0.0031 µM, 0.021 µM and 0.00072 µM, respectively.
The matching figures for `COc1cc(C(=O)N2CCO[C@](CCN3CCC4(CC3)c3ccccc3C[C@@H]4O)(c3ccc(Cl)c(Cl)c3)C2)cc(OC)c1OC`: 0.0068 µM, 0.04 µM and 0.0027 µM.
Consider `COc1cc(C(=O)N2CCO[C@@](CCN3CCC4(CC3)c3ccccc3C[C@@H]4O)(c3ccc(Cl)c(Cl)c3)C2)cc(OC)c1OC`, for which the IC50 on Substance-K receptor, on Substance-P receptor and at Neuromedin-K receptor was above 1 µM in each case.
For `COc1cc(C(=O)N2CCO[C@](CCN3CCC4(CC3)c3ccccc3C[C@H]4O)(c3ccc(Cl)c(Cl)c3)C2)cc(OC)c1OC`, the half-inhibitory concentration (IC50) at Substance-K receptor is 0.045 µM; on Substance-P receptor it was 0.27 µM; at Neuromedin-K receptor, 0.017 µM.
Consider `COc1cc(C(=O)N2CCOC(CCN3CCC4(CC3)c3ccccc3C[S+]4[O-])(c3ccc(Cl)c(Cl)c3)C2)cc(OC)c1OC.Cl` (configuration not stated), for which the ED50 with Cavia porcellus [1] was 0.063 mg/kg; in the test on Cavia porcellus [2] it was 0.33 mg/kg; in the test on Cavia porcellus [3], 0.04 mg/kg.
For `COc1cc(C(=O)N2CCO[C@@](CCN3CCC4(CC3)c3ccccc3C[S@@+]4[O-])(c3ccc(Cl)c(Cl)c3)C2)cc(OC)c1OC` (racemic), the results for the IC50 on Substance-K receptor, on Substance-P receptor and on Neuromedin-K receptor were above 1 µM, above 1 µM and 0.66 µM, respectively.
Turning to `COc1cc(C(=O)N2CCO[C@@](CCN3CCC4(CC3)c3ccccc3C[C@H]4O)(c3ccc(Cl)c(Cl)c3)C2)cc(OC)c1OC` (racemic), the IC50 at Substance-K receptor, on Substance-P receptor and on Neuromedin-K receptor was above 1 µM in each case.
